# Laboratory results from a melting point compilation (Tetko et al.; mined from patent text by program, amines drawn as free bases though some values may be those of a salt).
row,Compound,melting point
1,CCC1=NNC(C)=C(C(=O)OCCOC)C1c1cccc([N+](=O)[O-])c1 (centres undefined),141 °C
2,CCOC(=O)CCc1ccc(OCCCc2cn(-c3ccc(C(F)(F)F)cn3)nc2OCC)cc1OCc1ccccc1,80 to 81 °C
3,COc1ccc(C2NCCS2)cc1 (centres undefined),94 to 95 °C
4,COc1ccccc1C(=O)OC1=C(c2nnc(-c3ccccc3OC)o2)N(C)S(=O)(=O)c2ccccc21,119 to 120 °C
5,Cc1sc2c(=O)[nH]cnc2c1Br,320 to 322 °C
6,O=C1CCCC(O)=C1NC(=O)C1CC1,82 °C
7,COc1cc(C(C)C)c(NC(=O)CN2CCN(CCSc3nc4cccc([N+](=O)[O-])c4o3)CC2)c(C(C)C)c1,165 to 166 °C
8,Cc1c(C=O)c2cnnc(NCc3ccccc3)c2n1Cc1ccccc1,171 to 172 °C
9,O=C(CNCc1cccc(C(F)(F)F)c1)Nc1cccc2c1C(=O)c1c(NC(=O)CNCc3cccc(C(F)(F)F)c3)cccc1C2=O,190 to 191 °C
10,COc1cc(Cl)c2c(=O)c(C(C)C)coc2c1,177 to 179 °C
11,CC(C)(C)OC(=O)N1C[C@H](OS(C)(=O)=O)C[C@H]1CO,95 to 96 °C
12,Nc1ncnc2c1c(-c1cccc(O)c1)nn2Cc1oc2ccccc2c(=O)c1-c1ccccc1,154 to 158 °C
13,CC1SC(=O)NN=C1c1cccc([N+](=O)[O-])c1 (centres undefined),169 to 172 °C
14,Cc1ccc(S(=O)(=O)C=CC#N)cc1NS(=O)(=O)c1ccc2ccccc2c1,214 to 216 °C
15,N#CCCNC(=O)c1cccc(Br)c1,100 to 101 °C
16,Cc1ccnc2c(Oc3ccccc3NS(=O)(=O)c3ccc(Cl)cc3)cccc12,123 to 125 °C
17,CCCN(CCC)Cc1nnc(-c2ncn3c2[C@@H]2CCN2C(=O)c2c(Cl)cccc2-3)o1,134 to 136 °C
18,COC(=O)c1ccc(NC(C)=O)c2c1OCCC2,175 °C
19,CCCCCCCCCCC1=C(O)C(=O)NC1=O,109 to 111 °C
20,FC(F)(F)c1ccc2sc(=Nc3ccccc3)sc2c1,122 to 123 °C

row,Compound,melting point
1,CCCC/C=C\CCCCCCCCCC1=CC(=O)C=C(OC)C1=O,39.5 to 41.5 °C
2,CCCCOC(=O)C(Cl)=Cc1cc(-n2c(=O)cc(C(F)(F)F)n(C)c2=O)ccc1Cl,109 to 110 °C
3,CC[C@H]1CN(c2ccc3c(=O)c(C(=O)O)cn([C@@H]4C[C@@H]4F)c3c2C)C[C@H]1N,232 to 234 °C
4,CCOC(=O)c1c(COc2nccn2C)nc2cc(OC)c(OC)cc2c1-c1ccc(OC)c(OC)c1,151 to 152 °C
5,CCCC(=O)c1cnc2c(OC)nccc2c1OS(C)(=O)=O,184 to 185 °C
6,CCC(=O)c1cc(C2(c3cccc(Br)c3)N=C(N)N(C)C2=O)cn1CC (centres undefined),100 to 102 °C
7,NC(=O)Nc1cccc2c1C(=O)c1c-2n[nH]c1-c1ccco1,278 °C
8,Nc1c([N+](=O)[O-])cc(F)c(Cl)c1Br,146 to 147 °C
9,CN(SN1CCOCC1)C(=O)Nc1ccc(Cl)c(Cl)c1,142 °C
10,CN1CNC(=S)N(c2ccc(Cl)cc2)C1,178 to 179 °C
11,CC(=O)N(c1nc2cc3nc(N(C(C)=O)N4CCN(C)CC4)sc3cc2s1)N1CCN(C)CC1,256 to 258 °C
12,CS(=O)(=O)c1ccc(-c2cccn2-c2ccc(F)cc2F)cc1,122 to 125 °C
13,CCn1cnc2c(Cl)nc(Cl)nc21,100 to 103 °C
14,CCCCC=CCCCCC(=O)CCCCC=CCCCCC=O,80 to 83 °C
15,CS(=O)(=O)c1ccc(-c2cnn(-c3ccc(F)cc3)c(=O)c2S(=O)(=O)c2ccccc2)cc1,203 to 204 °C
16,O=C(OCc1ccccc1)[C@H](Cc1ccc(-c2ccccc2)cc1)NCP(=O)(Oc1ccccc1)Oc1ccccc1,85 to 86 °C
17,OCc1cnc(C(O)c2cc(F)ccc2F)c(F)c1 (centres undefined),94 to 96 °C
18,CCOC(C)OCC(O)CN1C(CO)=Cc2ccsc2S1(=O)=O (centres undefined),95 to 97 °C
19,CCCCCCCCOc1cnc(-c2ccc(C#CCCCC(C)OC(C)=O)cc2)nc1 (centres undefined),58 to 59 °C
20,Oc1nc(-c2ccc(F)cc2)c(CCN2CCC(=Cc3cccc(F)c3)CC2)s1,140 to 142 °C

row,Compound,melting point
1,CCn1cc(C(=O)O)c(=O)c2ccc(N)cc21,304 to 307 °C
2,CC(C)N[C@H](C(=O)O)C(C)C,> 300 °C
3,OC1CSC(Oc2cncc(-c3ncccn3)c2)C(O)C1O (centres undefined),201 °C
4,CCOC(=O)c1sc(=O)[nH]c1-c1cccc(C(F)(F)F)c1,168 to 171 °C
5,Oc1nc(-c2ccc(Cl)cc2)nc2c1CCC2,282 °C
6,CC1(C)OC(C=Cc2ccnc3ccccc23)=CC1=O,117 to 118 °C
7,COc1nc(C)c(N2CCCn3c2nc2c(Br)ccc(C(OC(F)F)C(F)(F)F)c23)c(C)n1 (centres undefined),211 to 213 °C
8,COc1cc(OC)c2sc(-c3ccc([N+](=O)[O-])cc3)nc2c1,238 to 239 °C
9,Cc1nn(-c2ccc(Cl)nn2)c(C)c1N,165 to 168 °C
10,Cn1cncc1C(N)(c1ccc(Cl)cc1)c1ccc2c(c1)c(CCc1cccc(Cl)c1)cc(=O)n2C (centres undefined),165 °C
11,CCSc1cc(C)nc(SCC)c1NC(=O)CCCCCCCCSc1nc2ccccc2[nH]1,76 to 78 °C
12,COc1ccc(-c2ccc(=O)n(Cc3ccc(Cl)cc3F)c2)cn1,136 °C
13,CN(C)c1nnc(-c2ccc3ncn(-c4ccc(OC(F)(F)F)cc4)c3c2)o1,224 to 225 °C
14,Nc1ccc(CC(NC(=O)CCCCCCCCCCNC(=O)C(c2ccccc2)c2ccccc2)c2ccccc2)cc1 (centres undefined),96 to 102 °C
15,Cc1oc(-c2ccc(S(C)(=O)=O)cc2)c(Oc2ccc(Cl)cc2)c(=O)c1Cl,274 °C
16,N#Cc1ccc(CN2C(=O)C3(COc4cc5c(cc43)CCO5)c3ccccc32)cc1 (centres undefined),69 to 71 °C
17,CCOC(=O)C(S)CC(=O)c1ccc(Oc2ccc(Cl)cc2)cc1 (centres undefined),75.5 to 76.5 °C
18,CN(C)C(=O)C1Cc2cc(Cl)ccc2NC1=O (centres undefined),302 to 305 °C
19,CCN(CC)C(=O)c1ccc(-c2cc3c(Nc4cccc(Cl)c4)ncnc3[nH]2)cc1,> 250 °C
20,CC(C)c1ccc(-n2c(CC(=O)O)c(C(=O)O)c3cc(Oc4ccc(C(F)(F)F)cc4)ccc32)cc1,250 to 252 °C

# Second part, the compound after the results:
row,melting point,Compound
1,190 °C,CC(C)(C)OC(=O)CN(C(=O)CN1C(=O)c2ccccc2C1=O)c1ccccc1Cc1ccccc1
2,187 to 188 °C,COc1ccc(NC(=O)c2ccc(-c3ccc(C(=O)N4CCCC4)cc3C)cc2)cc1N1CCN(C)CC1
3,163 to 165 °C,COc1ccc2c(c1)cc(C(=O)Nc1nc(-c3cc(OC)c(C)cc3OC)c(CCC3CCCCC3)s1)n2CC(=O)O
4,57 to 58 °C,Nc1sc2c(c1C(=O)c1ccsc1)CCC(Cc1ccccc1)C2 (centres undefined)
5,192 to 193 °C,CCN(C)C1CCCN(C(=O)c2ccc(NC(=O)c3ccccc3C)cc2)c2ccccc21 (centres undefined)
6,286 to 289 °C,Nc1ccc(CN2C(=O)[C@H]3CCC[C@H]3N(C(=O)CN3C(=O)c4ccccc4C3=O)c3ccccc32)cc1 (relative stereo)
7,241 to 242 °C,NC(=O)CNC(=O)c1nccc(-c2cccc3cc(Cc4cccc(C(F)(F)F)c4)sc23)n1
8,222 to 223 °C,CN(C)S(=O)(=O)c1ccccc1-c1cnc(N)c(C(=O)Nc2cccnc2)n1
9,232 to 237 °C,O=C(O)c1cn(C2CC2)c2c(F)c(N3CCC(N=Cc4ccc(Cl)cc4)C3)c(F)cc2c1=O (centres undefined)
10,136 to 137 °C,CN1CCC(c2c[nH]c3ccc(NC(=O)c4cccnc4)nc23)CC1
11,169 to 171 °C,CCC(=O)N1CCC(NC(=O)Nc2ccccc2)CC1
12,220 to 221 °C,"CC(=O)NCC1CC(c2cc(F)c(N3CCN(C(=O)CO)CC3)c(F)c2)=NO1 (single isomer, unassigned; (-))"
13,110 to 112 °C,COC(N)C(=O)NC(=O)OCc1ccccc1 (centres undefined)
14,93 to 95 °C,Cn1nc(C(=O)OCC23CCCN(CC2)C3)c2ccccc21 (centres undefined)
15,173 to 175 °C,CCCc1c(OCCCS(=O)c2nc3ccc(C(=O)O)cc3[nH]2)ccc(C(C)=O)c1O (centres undefined)
16,238 to 239 °C,CCCCc1nc2cc(C(=O)O)ccc2n1Cc1ccccc1Cl
17,125 to 126 °C,COC(=O)/C=C(\C)c1ccc(OCc2nc(-c3ccccc3)oc2C)cc1

row,melting point,Compound
1,138 to 140 °C,CN1C(=O)N(C[C@H](C(=O)NOCc2ccccc2)[C@@H](CC2CCCC2)C(=O)N2CCCCC2)C(=O)C1(C)C
2,89 to 91 °C,CCCCc1nc(Cl)c(CO)n1Cc1ccc(NC(=O)[C@H](CC#N)NC(=O)OCc2ccccc2)cc1
3,81 to 82 °C,OCc1cc2c3ccccc3n(Cc3ccccc3)c2s1
4,165 °C,COC(=O)c1ccc(CBr)c(OCC(=O)c2ccc(OC)c(C34CC5CC(CC(C5)C3)C4)c2)c1
5,111 to 112 °C,COCNC(=O)SC(C(=O)O)c1ccccc1 (centres undefined)
6,147 to 148 °C,Cc1ccc(C(=O)Nc2cn(C3CCCCO3)nc2C(=O)NCCC(F)(F)F)cn1 (centres undefined)
7,188 to 189 °C,O=[N+]([O-])c1cn2c(n1)O[C@@H](COc1ccc(N3CCC(OCc4ccc(OC(F)(F)F)cc4)CC3)cc1)C2
8,45 to 53 °C,COc1ccc2cc(CNCc3ccccc3)ccc2c1
9,288 °C,O=C(Nc1cn2cc(Cl)ccc2n1)c1ccc(C2(C(=O)O)CCCCC2)cc1
10,106 to 109 °C,O=C(NC1CCc2n[nH]cc2C1)[C@@H]1CCCN1C(=O)[C@@H](CC1CCCCC1)NS(=O)(=O)Cc1ccccc1 (some centres undefined)
11,77 to 99 °C,COc1cc2c(cc1Nc1ncc(Cl)c(Nc3ccccc3S(C)(=O)=O)n1)CCN(CC(=O)N(C)C)CC2
12,120 to 122 °C,Cc1cccc(CC(Nc2ccccc2)C(=O)NC(C#N)COCc2cccc(-c3nnn[nH]3)c2)c1 (centres undefined)
13,168 to 175 °C,O=C(Nc1ccc(OC(F)(F)F)cc1)NC1CCN(C(=O)c2cc(O)c(O)c(O)c2)CC1
14,248 °C,NC(=O)CCc1ccc(-c2nc(=O)c3ccccc3s2)nc1
15,186 to 188 °C,O=C(Nc1ccccc1)Nc1cc(Cl)ccc1C(=O)O
16,56 to 58 °C,CCOC(=O)C(=O)N(CC)C(=O)OCCOc1ccc(Oc2ccccc2)cc1
17,218 to 220 °C,CCOC(=O)c1c(-c2ccccc2)n(C)n(-c2ccc(C#N)cc2)c1=O
